Measured values taken from ChEMBL document CHEMBL1201862, “PubChem BioAssay data set” (2004).
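Test compounds were applied to cells in 96-well plates for 48 hours at 5 doses. GI50 marks 50% less growth.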 The source made the active and inactive calls. No stated cut-off is given here; in the data, active = GI50 up to about 1.1 µM and inactive = higher.

Key:
Test in all cases: DTP human tumour cell line panel, 48 h
[1] = test system: HOP-18
[2] = test system: DLD-1
[3] = test system: LXFL 529
[4] = test system: DMS-114
[5] = test system: RXF 631
[6] = test system: KM-20L2
[7] = test system: XF498
[8] = test system: DMS-273

Measured: GI50

CCC1(CC)C(=O)NC(=S)N=C1N
inactive: [1] > 100 µM | [2] > 100 µM | [3] > 100 µM | [4] > 100 µM | [5] > 100 µM | [6] > 100 µM | [7] > 100 µM | [8] > 100 µM

CCc1cccc(C)c1NC(=O)C1=C(C)NC(C)=C(C(=O)Nc2c(C)cccc2CC)C1c1ccc([N+](=O)[O-])cc1
inactive: [2] 29 µM | [3] 37.9 µM | [5] 29.1 µM | [6] 39.9 µM | [7] 19.4 µM | [8] 38.6 µM

O=c1[nH]c(=O)n([C@@H]2C[C@H](CO)[C@H](O)C2)cc1/C=C/Br
inactive: [1] > 100 µM | [2] > 100 µM | [3] > 100 µM | [4] > 100 µM | [5] > 100 µM | [6] > 100 µM | [8] > 100 µM

COc1cc2c(cc1OC)[C@@H]([C@H](O)c1ccccc1)NCC2
inactive: [1] > 100 µM | [2] > 100 µM | [3] > 100 µM | [4] > 100 µM | [5] > 97.3 µM | [6] > 100 µM | [7] > 100 µM | [8] > 100 µM

CC(C)[C@H](COC(C)(C)C)/N=C/N1CSc2ccccc21
inactive: [2] 48.4 µM | [3] 34.7 µM | [4] 21.8 µM | [5] 27.4 µM | [6] 27.8 µM | [7] 16.9 µM | [8] 16.8 µM

CCCCCCCCCCCCC(Br)C(C)=O (stereo unspecified)
inactive: [1] > 100 µM | [2] > 100 µM | [3] > 100 µM | [4] > 100 µM | [5] > 100 µM | [6] > 100 µM | [7] > 100 µM | [8] > 100 µM

ClCc1ccc(C2OCCO2)cc1
inactive: [1] 37.5 µM | [2] 17.2 µM | [3] 17.1 µM | [4] > 24 µM | [5] > 100 µM | [6] > 45.9 µM | [7] 18.8 µM | [8] 18.3 µM

CCNC(=O)COc1ccc(Cl)cc1Cl
inactive: [1] > 100 µM | [2] > 100 µM | [3] > 100 µM | [4] > 100 µM | [5] > 100 µM | [6] > 100 µM | [8] > 100 µM

Cc1ccccc1NC(=O)/C(=N\NC(N)=S)C(C#N)c1ccccc1 (stereo unspecified)
inactive: [1] > 100 µM | [2] > 100 µM | [3] > 100 µM | [4] 72.4 µM | [5] > 100 µM | [6] > 100 µM | [8] > 100 µM
